Among the data in patent US20230339886A1 (University of Florida Research Foundation, Incorporated, priority 2020, published 2023) are EC50 values, retold here.

The target of one assay is T1, REV-ERBβ (Homo sapiens, UniProt Q14995).
T1 construct: 6×Histag-REV-ERBα LBD (human; residues 381-579); made in house; host or cells: Escherichia coli
T1 sequence (Q14995 381-579): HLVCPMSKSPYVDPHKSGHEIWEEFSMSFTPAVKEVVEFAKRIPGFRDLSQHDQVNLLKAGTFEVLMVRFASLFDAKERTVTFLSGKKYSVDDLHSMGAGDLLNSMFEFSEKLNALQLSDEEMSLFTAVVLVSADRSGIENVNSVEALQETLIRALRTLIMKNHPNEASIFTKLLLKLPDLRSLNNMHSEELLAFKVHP
Kind of assay: TR-FRET corepressor interaction assay (REV-ERBβ, FITC-SMRT peptide). In kind it is biochemical. Particulars: Table 2, read-out: REVERBβ agonism (EC50 class, FRET assay). Here is the method:
TR-FRET corepressor interaction assay. The time-resolved fluorescence resonance energy transfer (TR-FRET) assay was performed in black low-volume 384-well plates (Greiner). […] Ligand stocks were prepared via serial dilution in DMSO, added to wells in triplicate, and plates were incubated at 4° C. for 2 h and read using a BioTek Synergy Neo multimode plate reader. The Tb donor was excited at 340 nm; its fluorescence emission was monitored at 495 nm, and the acceptor FITC emission was measured at 520 nm; and the TR-FRET ratio was calculated as the signal at 520 nm divided by the signal at 495 nm. Data were plotted using GraphPad Prism as TR-FRET ratio vs. ligand concentration and fit to sigmoidal dose response curve equation.
Exemplary compounds of the present disclosure were assayed as described above to assess agonism of REV-ERBα and REV-ERBβ.
For orientation: Time-resolved FRET reads energy transfer from a long-lived donor to a nearby acceptor.

Assay [1] addresses T2, REV-ERBα LBD (human; residues 281-614 Δ324-422) (Homo sapiens, UniProt P20393, DEL324-422).
T2 construct: 6×Histag-REV-ERBα LBD (human; residues 281-614 Δ324-422); made in house; host or cells: Escherichia coli
The experiment in a line: TR-FRET corepressor interaction assay (REV-ERBα LBD, FITC-SMRT peptide). In kind it is biochemical. The conditions noted are these: Table 2, read-out: REVERBα agonism (EC50 class, FRET assay). The procedure, abridged: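 Compound serial dilutions (in DMSO, triplicate) incubated 2 h at 4 °C; Tb donor excited at 340 nm, emission read at 495 nm and FITC acceptor at 520 nm. TR-FRET ratio (520/495 nm) plotted against ligand concentration and fitted to a sigmoidal dose-response curve.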

T2 sequence (P20393 with tags, fused parts or gaps DEL324-422): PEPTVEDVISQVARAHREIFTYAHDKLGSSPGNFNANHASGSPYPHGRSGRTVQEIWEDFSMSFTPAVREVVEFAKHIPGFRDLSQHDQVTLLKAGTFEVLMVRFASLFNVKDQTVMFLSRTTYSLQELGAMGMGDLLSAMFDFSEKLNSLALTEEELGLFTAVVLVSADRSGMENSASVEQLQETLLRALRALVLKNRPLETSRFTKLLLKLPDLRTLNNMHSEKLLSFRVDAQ
T2 sequence (Q9Y618 2335-2356 partner limits assumed): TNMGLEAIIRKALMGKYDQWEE

Consider `CC(C)Cn1cc(CCNS(=O)(=O)C2CCCC2)c2ccc(-c3ccncc3)cc21` [Compound 11], for which the EC50 on REV-ERBβ is greater than 3 µM; in assay [1], less than 0.5 µM. The matching figures for `CC(C)Cn1cc(CCNS(=O)(=O)CC(C)C)c2ccc(-c3ccncc3)cc21` [Compound 12]: greater than 3 µM and less than 0.5 µM.

Regarding `CC(C)Cn1cc(CCNS(=O)(=O)C2CC2)c2ccc(-c3ccncc3)cc21` [Compound 13], the EC50 at REV-ERBβ is greater than 3 µM; in assay [1], less than 0.5 µM. The matching figures for `Cc1noc(C)c1S(=O)(=O)NCCc1cn(CC(C)C)c2cc(-c3ccncc3)ccc12` [Compound 14]: greater than 3 µM and greater than 3 µM. The matching figures for `CC(C)Cn1cc(CCNS(=O)(=O)c2cccnc2)c2ccc(-c3ccncc3)cc21` [Compound 15]: greater than 3 µM and 0.5 to 3 µM.

In the case of `CC(C)Cn1cc(CCNS(=O)(=O)N(C)C)c2ccc(C3CCCCC3)cc21` [Compound 16], the figures for the EC50 (on REV-ERBβ; in assay [1]) were 0.5 to 3 µM and less than 0.5 µM, respectively. The matching figures for `CC(C)Cn1cc(CCNS(=O)(=O)N(C)C)c2ccc(-c3ccnc(C(F)(F)F)c3)cc21` [Compound 17]: greater than 3 µM and 0.5 to 3 µM. The matching figures for `CC(C)Cn1cc(CCNS(=O)(=O)N(C)C)c2ccc(-c3cc[nH]c(=O)c3)cc21` [Compound 18]: greater than 3 µM and greater than 3 µM.

In the case of `CC(C)Cn1cc(CCNS(=O)(=O)N(C)C)c2ccc(-c3ccnc(Cl)c3)cc21` [Compound 20], the EC50 at REV-ERBβ is greater than 3 µM; in assay [1] it was less than 0.5 µM.

As for `CC(C)Cn1cc(CCNS(=O)(=O)N(C)C)c2ccc(-c3ccnc(N)c3)cc21` [Compound 21], the EC50 on REV-ERBβ was greater than 3 µM; in assay [1] it was 0.5 to 3 µM. The matching figures for `CC(C)Cn1cc(CCNS(=O)(=O)N(C)C)c2ccc(-c3cccnc3)cc21` [Compound 28, dimethyl({2-[1-(2-methylpropyl)-6-(pyridin-3-yl)-1H-indol-3-yl]ethyl}sulfamoyl)amine]: greater than 3 µM and less than 0.5 µM. The matching figures for `CC(C)Cn1cc(CCNS(=O)(=O)N(C)C)c2ccc(-c3cncnc3)cc21` [Compound 29, dimethyl({2-[1-(2-methylpropyl)-6-(pyrimidin-5-yl)-1H-indol-3-yl]ethyl}sulfamoyl)amine]: greater than 3 µM and 0.5 to 3 µM.

On to `CC(C)Cn1cc(CCNS(=O)(=O)N(C)C)c2ccc(-c3ccccc3)cc21` [Compound 30, dimethyl({2-[1-(2-methylpropyl)-6-phenyl-1H-indol-3-yl]ethyl}sulfamoyl)amine], for which the EC50 on REV-ERBβ was 0.5 to 3 µM. Take `CC(C)Cn1cc(CCNS(=O)(=O)N(C)C)c2ccc(-c3ccccn3)cc21` [Compound 31, dimethyl({2-[1-(2-methylpropyl)-6-(pyridin-2-yl)-1H-indol-3-yl]ethyl}sulfamoyl)amine]: the EC50 at REV-ERBβ is greater than 3 µM; in assay [1] it was 0.5 to 3 µM.

Consider `CC(C)Cn1cc(CCNS(=O)(=O)N(C)C)c2ccc(-c3ncccn3)cc21` [Compound 32, dimethyl({2-[1-(2-methylpropyl)-6-(pyrimidin-2-yl)-1H-indol-3-yl]ethyl}sulfamoyl)amine], for which the values for the EC50 (at REV-ERBβ; in assay [1]) were greater than 3 µM and 0.5 to 3 µM, respectively. The matching figures for `CC(C)Cn1cc(CCNS(=O)(=O)N(C)C)c2ccc(-c3cnn(C)c3)cc21` [Compound 33, dimethyl({2-[6-(1-methyl-1H-pyrazol-4-yl)-1-(2-methylpropyl)-1H-indol-3-yl]ethyl}sulfamoyl)amine]: greater than 3 µM and greater than 3 µM. As for `CC(C)Cn1cc(CCNS(=O)(=O)N(C)C)c2ccc(-c3ccnn3C)cc21` [Compound 34, dimethyl({2-[6-(1-methyl-1H-pyrazol-5-yl)-1-(2-methylpropyl)-1H-indol-3-yl]ethyl}sulfamoyl)amine], the concentration giving a half-maximal response (EC50) at REV-ERBβ was greater than 3 µM; in assay [1], less than 0.5 µM. For the molecule `CC(C)Cn1cc(CCNS(=O)(=O)N(C)C)c2ccc(-c3cn[nH]c3)cc21` [Compound 35, dimethyl({2-[1-(2-methylpropyl)-6-(1H-pyrazol-4-yl)-1H-indol-3-yl]ethyl}sulfamoyl)amine], the values for the concentration giving a half-maximal response (EC50) (at REV-ERBβ; in assay [1]) were greater than 3 µM and less than 0.5 µM, respectively. The matching figures for `CC(C)Cn1cc(CCNS(=O)(=O)N(C)C)c2ccc(-c3ccnc(N4CCOCC4)c3)cc21` [Compound 36, dimethyl({2-[1-(2-methylpropyl)-6-[2-(morpholin-4-yl)pyridin-4-yl]-1H-indol-3-yl]ethyl}sulfamoyl)amine]: greater than 3 µM and greater than 3 µM. The matching figures for `CC(C)Cn1cc(CCNS(=O)(=O)N(C)C)c2ccc(-c3ccnc4ccccc34)cc21` [Compound 37, dimethyl({2-[1-(2-methylpropyl)-6-(quinolin-4-yl)-1H-indol-3-yl]ethyl}sulfamoyl)amine]: 0.5 to 3 µM and less than 0.5 µM.

In the case of `CC(C)Cn1cc(CCNS(=O)(=O)N(C)C)c2ccc(-c3cccc4cnccc34)cc21` [Compound 38, ({2-[6-(isoquinolin-5-yl)-1-(2-methylpropyl)-1H-indol-3-yl]ethyl}sulfamoyl)dimethylamine], the EC50 (at REV-ERBβ; in assay [1]) was greater than 3 µM in each case. As to `CC(C)Cn1cc(CCNS(=O)(=O)N(C)C)c2ccc(-c3cccc4ccccc34)cc21` [Compound 39, dimethyl({2-[1-(2-methylpropyl)-6-(naphthalen-1-yl)-1H-indol-3-yl]ethyl}sulfamoyl)amine], the EC50 is greater than 3 µM at REV-ERBβ and less than 0.5 µM in assay [1].

With `CC(C)Cn1cc(CCNS(=O)(=O)N(C)C)c2ccccc21` [Compound 68, dimethyl({2-[1-(2-methylpropyl)-1H-indol-3-yl]ethyl}sulfamoyl)amine], the values for the EC50 (at REV-ERBβ; in assay [1]) were greater than 3 µM and 0.5 to 3 µM, respectively. The matching figures for `CC(C)Cn1cc(CCNS(=O)(=O)N(C)C)c2ccc(C(C)C)cc21` [Compound 91, dimethyl({2-[1-(2-methylpropyl)-6-(propan-2-yl)-1H-indol-3-yl]ethyl}sulfamoyl)amine]: 0.5 to 3 µM and less than 0.5 µM.

In the case of `CCCc1ccc2c(CCNS(=O)(=O)N(C)C)cn(CC(C)C)c2c1` [Compound 98, dimethyl({2-[1-(2-methylpropyl)-6-propyl-1H-indol-3-yl]ethyl}sulfamoyl)amine], the half-maximal effective concentration (EC50) is greater than 3 µM on REV-ERBβ and less than 0.5 µM in assay [1].

In the case of `CC(C)Cn1cc(CCNS(=O)(=O)N(C)C)c2ccc(C3CCCC3)cc21` [Compound 99, ({2-[6-cyclopentyl-1-(2-methylpropyl)-1H-indol-3-yl]ethyl}sulfamoyl)dimethylamine], the EC50 on REV-ERBβ was 0.5 to 3 µM; in assay [1] it was less than 0.5 µM.

Take `CCc1ccc2c(CCNS(=O)(=O)N(C)C)cn(CC(C)C)c2c1` [Compound 100, ({2-[6-ethyl-1-(2-methylpropyl)-1H-indol-3-yl]ethyl}sulfamoyl)dimethylamine]: the EC50 on REV-ERBβ was greater than 3 µM; in assay [1], less than 0.5 µM. The matching figures for `CCC(C)n1cc(CCNS(=O)(=O)N(C)C)c2ccc(-c3ccncc3)cc21` (stereo not shown) [Compound 230]: 0.5 to 3 µM and less than 0.5 µM. The matching figures for `CC(C)CCn1cc(CCNS(=O)(=O)N(C)C)c2ccc(-c3ccncc3)cc21` [Compound 231]: 0.5 to 3 µM and less than 0.5 µM. For `CC(C)Cn1cc(CCNS(=O)(=O)C(C)C)c2cc(F)c(-c3ccccc3Cl)cc21` [Compound 262], the values for the EC50 (on REV-ERBβ; in assay [1]) were greater than 3 µM and less than 0.5 µM, respectively. The matching figures for `CC(C)Cn1cc(CCNS(=O)(=O)C(C)C)c2cc(F)c(-c3ccncc3Cl)cc21` [Compound 263]: greater than 3 µM and less than 0.5 µM. The matching figures for `CC(C)Cn1cc(CNS(=O)(=O)C(C)C)c2cc(F)c(-c3ccncc3)cc21` [Compound 265]: greater than 3 µM and less than 0.5 µM.

With `CC(C)Cc1cn(CCNS(=O)(=O)N(C)C)c2ccc(-c3ccncc3)cc12` [Example 23, dimethyl({2-[3-(2-methylpropyl)-5-(pyridin-4-yl)-1H-indol-1-yl]ethyl}sulfamoyl)amine], at REV-ERBβ, the EC50 was 0.5 to 3 µM. On the same count and under the same terms, with `COc1ccccc1-c1ccc2c(CCNS(=O)(=O)N(C)C)cn(CC(C)C)c2c1` [Example 58, N-{2-[6-(2-methoxylphenyl)-1-(2-methylpropyl)-1H-indol-3-yl]ethyl}-N,N-dimethylsulfuric diamide] the figure was greater than 3 µM; with `CC(C)Cn1cc(CCNS(=O)(=O)N(C)C)c2ccc(-c3ccccc3Cl)cc21` [Example 78, N-{2-[6-(2-chlorophenyl)-1-(2-methylpropyl)-1H-indol-3-yl]ethyl}-N,N-dimethylsulfuric diamide], greater than 3 µM; with `CC(C)Cn1cc(CCNS(=O)(=O)N(C)C)c2ccc(C3CC3)cc21` [Example 82, N-{2-[6-cyclopropyl-1-(2-methylpropyl)-1H-indol-3-yl]ethyl}-N,N-dimethylsulfuric diamide], greater than 3 µM.

As usually defined, the EC50 is the concentration that produces a half-maximal response.
